Measured values: patent publication US6524330B1, “Method of ocular treatment” (priority 2000, dated 2003)
“Also recorded” adds a separate entry of the source.

Legend:
choriocapillaris [1] = test: Photodynamic therapy with liposomal hypocrellin A in rabbit eyes, yellow laser (568 nm), fundus observation and fluorescein angiography; format: in vivo, Rabbits (Dutch belted pigmented); settings: for Fluorescein Angiogram 2 hours post PDT / Fluorescein Angiogram 24 hours post PDT: 568 nm, 500 μg/kg i.v. in liposomes
Procedure: (§1) Rabbits (twenty-five Dutch belted pigmented, 2-3 kg body weight), were administered hypocrellin A (Molecular Probes, Eugene, Oreg.) by systemic injection into the ear vein. Animals were anesthetized by intramuscular injection of ketamine hydrochloride (50 mg/kg) and xylazine hydrochloride (5 mg/kg). Pupils were dilated with 2.5% phenylephrine and 0.5% tropicamide.
Hypocrellin A was incorporated into liposomes composed of phosphatidylcholine (PC), phosphatidylglycerol (PG), cholesterol, or dipalmitoyl phosphatidylcholine (DPPC), dipalmitoyl phosphatidylglycerol (DPPG) (Avanti Polar Lipids, Pelham, Ala.), with or without cholesterol, using methods known to one of skill in this art. In general, large unilamellar vesicles (LUV) were formed using the reverse phase evaporation method of Szoka and Papahadjopoulos (Proc. Natl. Acad. Sci. USA 1978; 75:4194-4198). Lipids (100 mg PC, 25 mg PG, and optionally 15 mg cholesterol) and 1 mg hypocrellin A were dissolved in chloroform. The solution was placed in a round flask under rotary evaporation (Buschi Laboratoriums-teenik AG, Flawil, Schewiz) to make a thin film. The dried material was dissolved in 6 ml chloroform and 12 ml ether.
The aqueous phase consisted of 4 ml HEPES buffered saline ([…] NaCI, 2 mM KCI, 10 mM HEPES buffer, pH 7.4, 300 mOsm). This was added to the chloroform/ether solution, the flask was filled with nitrogen gas and subjected to ultrasound at 40° C. for two minutes to form a homogeneous emulsion, which was transferred to a rotary evaporator. At pressures below about 400 mm Hg, the emulsion began to bubble extensively as the organic phase was drawn off. […] The foaming emulsion was vented whenever it neared the top of the flask. Progressively higher vacuum was used to maintain foaming. As the process continued, the foaming decreased. At a pressure of about 100 mm Hg, foaming ceased and the procedure was completed. The process yielded large, negatively charged, unilamellar liposomes with HEPES buffer encapsulated into the aqueous phase and hypocrellin A incorporated into the bilayers of the liposomes. Before injection, the LUV were filtered through 0.8 μm pores.
The hypocrellin preparation was administered as an intravenous bolus into the marginal ear vein. The dose of hypocrellin administered was 500 μg/kg in a volume of about 2 ml. However, doses in the range of about […] may also be administered. Control animals received vehicle (liposomes without hypocrellin A in a saline solution) only.
(§2) After administration of compound, for example, 10-15 minutes after hypocrellin A administration, PDT was initiated upon application of laser irradiation with a dye laser (Coherent, Palo Alto, Calif.). Prior to light application, a lens with a focal length of 25 cm was placed in front of the laser beam to prevent interference with the slit lamp light path and to enlarge the spot size produced by the 500 μm setting of the laser to 2 mm on the retina. A spot size of 2 mm was used throughout. A plano fundus contact lens was placed on the cornea, with methylcellulose gel as a coupler, to null the refraction of the cornea. Animals were positioned in a stereotactic support attached to the slit lamp to maintain precise alignment.
The wavelengths were tested: yellow (568 nm) and red (647 nm). Laser powers were in the range of about 10 mW to about 60 mW. Duration of irradiation was for a minimum of 10 seconds to a maximum of 60 seconds. The photodynamic effect is not only related to the irradiance, but power and duration as well. Fluence (irradiance) is the product of power and duration divided by the spot size, but with a constant spot size, irradiance is a function of power and duration only. Fluence was in the range of 3.2 to 95.5 J/cm^2. […] In one embodiment, the lowest possible power and duration that induce the minimal fluorescein angiographic response is used.
The irradiations were done in the avascular retina, below the optic disc. […]

choriocapillaris [2] = test: Photodynamic therapy with hypocrellin A in rabbit eyes, red laser (647 nm), funduscopy and angiography; format: in vivo, Rabbits (Dutch belted pigmented); settings: 647 nm (red laser); dose of 500 μg/kg systemically; any of the power levels or durations tested
Procedure: as §1
The hypocrellin preparation was administered as an intravenous bolus into the marginal ear vein. […] However, doses in the range of about […] may also be administered. Control animals received vehicle (liposomes without hypocrellin A in a saline solution) only.
as §2, with “alignment. […]” for “alignment.”

choriocapillaris [3] = system: choriocapillaris
Procedure: Immediately after the second fluorescein examination, eyes were enucleated and fixed in 2% paraformaldehyde and 3% glutaraldehyde for 24 h. The areas of PDT treatment were surgically excised and specimens were dehydrated in ethanol, embedded in resin, subjected to serial sectioning and staining with 1% toluidine blue for light microscopy.

[4] = cited from earlier work
[5] = power 10 mW, duration 10, 20, 30, 40, 50, 60 sec, irradiance 3.2-19.1 J/cm^2, 2 mm spot
[6] = power 20 mW, duration 10, 20, 30, 40, 50 sec, irradiance 6.4-31.8 J/cm^2
[7] = power 20 mW, duration 60 sec, irradiance 38.2 J/cm^2
[8] = power 30 mW, duration 10, 20, 30 sec, irradiance 9.6-28.6 J/cm^2
[9] = power 30 mW, duration 40, 50, 60 sec, irradiance 38.2-57.3 J/cm^2
[10] = power 40 mW, duration 10 sec, irradiance 12.7 J/cm^2
[11] = power 40 mW, duration 20, 30, 40, 50, 60 sec, irradiance 25.4-76.4 J/cm^2
[12] = power 50 mW, duration 10, 20, 30, 40, 50, 60 sec, irradiance 15.9-95.5 J/cm^2
[13] = power 60 mW, duration 10 sec, irradiance 19.1 J/cm^2
[14] = power 60 mW, duration 20 sec, irradiance 38.2 J/cm^2
[15] = power 60 mW, duration 30 sec, irradiance 57.3 J/cm^2

Substance: hypocrellin A
- retinal changes in the treated area during or immediately after laser irradiation (choriocapillaris [1]; 568 nm (yellow laser), treated rabbits): no retinal changes
- Fluorescein Angiogram 2 hours post PDT (choriocapillaris [1]; [5]): no effect; also recorded: No response
- Fluorescein Angiogram 24 hours post PDT (choriocapillaris [1]; [5]): no effect; also recorded: No response
- Fluorescein Angiogram 2 hours post PDT (choriocapillaris [1]; [6]): no effect; also recorded: No response
- Fluorescein Angiogram 24 hours post PDT (choriocapillaris [1]; [6]): no effect; also recorded: No response
- Fluorescein Angiogram 2 hours post PDT (choriocapillaris [1]; [7]): No response
- Fluorescein Angiogram 24 hours post PDT (choriocapillaris [1]; [7]): minimal response; also recorded: Minimal H
- Fluorescein Angiogram 2 hours post PDT (choriocapillaris [1]; [8]): No response
- Fluorescein Angiogram 24 hours post PDT (choriocapillaris [1]; [8]): No response
- Fluorescein Angiogram 2 hours post PDT (choriocapillaris [1]; [9]): No response
- Fluorescein Angiogram 24 hours post PDT (choriocapillaris [1]; [9]): fluorescence effect was seen and H
- Fluorescein Angiogram 2 hours post PDT (choriocapillaris [1]; [10]): No response
- Fluorescein Angiogram 24 hours post PDT (choriocapillaris [1]; [10]): No response
- Fluorescein Angiogram 2 hours post PDT (choriocapillaris [1]; [11]): no effect; also recorded: No response
- Fluorescein Angiogram 24 hours post PDT (choriocapillaris [1]; [11]): fluorescence effect and H
- Fluorescein Angiogram 2 hours post PDT (choriocapillaris [1]; [12]): No response
- Fluorescein Angiogram 24 hours post PDT (choriocapillaris [1]; [12]): fluorescence effect was observed and H
- Fluorescein Angiogram 2 hours post PDT (choriocapillaris [1]; [13]): No response
- Fluorescein Angiogram 24 hours post PDT (choriocapillaris [1]; [13]): response visible on the angiogram and fluorescence effect and H
- Fluorescein Angiogram 2 hours post PDT (choriocapillaris [1]; [14]): fluorescence effect was seen and H
- Fluorescein Angiogram 24 hours post PDT (choriocapillaris [1]; [14]): fluorescence effect was seen and H
- Fluorescein Angiogram 2 hours post PDT (choriocapillaris [1]; [15]): fluorescence effect was seen and H
- Fluorescein Angiogram 24 hours post PDT (choriocapillaris [1]; [15]): fluorescence effect was seen and H
- funduscopic or angiographic changes (choriocapillaris [2]): no demonstrable funduscopic or angiographic changes
- histologic finding by light microscopy 24 hours after laser irradiation (choriocapillaris [3]; all eyes that developed angiographic changes): occlusion of the choriocapillaris
- damage to inner or outer retinal layers (choriocapillaris [3]; light microscopy 24 hours after laser irradiation): No damage to inner or outer retinal layers
- toxicity in the absence of light [4]: non-toxic
